Holding throughout (assay): NCI-60 cell line screen, 48 h
For assay [1], the system named is K562.
In assay [2] the test system is M14.
The test system of assay [3] is ACHN.
Assay [4] concerns RXF 393.
Assay [5] concerns MOLT-4.
Assay [6] relates to SK-MEL-5.
For assay [7], the system named is SK-OV-3.
Assay [8] concerns SF-295.
For assay [9], the system named is HOP-18.
Assay [10] has as its system NCI-H23.
Assay [11] has as its system SNB-75.
For assay [12], the system named is RPMI-8226.
Assay [13] relates to MCF7.
In assay [14] the test system is T47D.
For assay [15], the system named is DLD-1.
For assay [16], the system named is A549.
Assay [17] concerns SK-MEL-28.
Assay [18] has as its system NCI-H226.
For assay [19], the system named is UO-31.
Assay [20] concerns OVCAR-5.

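Dose response: 5 concentrations. Exposure: 48 h. Format: 96-well plates. Endpoint: linear interpolation; highest concentration if not reached. Here, GI50 denotes the concentration required for 50% inhibition of growth.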 Activity calls are given as the source filed them. No stated cut-off is given here; in the data, active = GI50 up to about 1.1 µM and inactive = higher.

Take `O=C1C=CC(=O)c2cc(Sc3ccccc3)c(=O)ccc21`: the GI50 is 2.49 µM (inactive) in [1]; 17.8 µM (inactive) in assay [2]; 9.89 µM (inactive) in assay [3]; 12.3 µM (inactive) in assay [4]; 2.24 µM (inactive) in [5]; 14.2 µM (inactive) in assay [6]. Moreover, the GI50 in assay [7] was 26 µM (inactive); in assay [8], 8.36 µM (inactive); in [9] it was 17.9 µM (inactive); in [10] it was 19.2 µM (inactive); in [11], 8.2 µM (inactive); in assay [12] it was 4.46 µM (inactive). Also, the GI50 was 5.83 µM (inactive) in assay [13]; 3.41 µM (inactive) in assay [14]; 13.6 µM (inactive) in assay [15]; 20.1 µM (inactive) in assay [16]; 18 µM (inactive) in [17]; 23.1 µM (inactive) in [18]. Besides, the GI50 in [19] was 11.7 µM (inactive); in assay [20], 19.6 µM (inactive).

For the compound `COc1cc2c(c(OC)c1OC)C(=O)NCCC2`, the GI50 in assay [1], in [2], in [3], in assay [4], in [5] and in assay [6] was > 100 µM (inactive) each time. Further, the GI50 in assay [7] was > 100 µM (inactive); in [8], > 100 µM (inactive); in assay [9] it was > 100 µM (inactive); in assay [10] it was > 100 µM (inactive); in assay [11] it was 69.7 µM (inactive); in assay [12], > 100 µM (inactive). Further, the GI50 in assay [13], in assay [15], in assay [16], in [17], in assay [18] and in [19] was > 100 µM (inactive) throughout. Besides, the GI50 in assay [20] is > 100 µM (inactive).

As to `COc1cc2c(cc1O)CN1CCC23C=C[C@@H](O)CC13` (some centres not stated), the GI50 in assay [1] was 51.3 µM (inactive); in assay [2] it was 41 µM (inactive); in assay [3], 57.5 µM (inactive); in [4] it was 38.2 µM (inactive); in assay [5], 45.5 µM (inactive); in assay [6], 39.6 µM (inactive). For the same compound, the GI50 in [7] is > 100 µM (inactive); in assay [8] it was 96.2 µM (inactive); in assay [9], 71 µM (inactive); in assay [10] it was 78.7 µM (inactive); in assay [11], 59.4 µM (inactive); in assay [12] it was > 100 µM (inactive). Besides, the GI50 in assay [15] was 63 µM (inactive); in [16], 75.2 µM (inactive); in [17], 76.4 µM (inactive); in [18] it was 76.4 µM (inactive); in assay [19], > 100 µM (inactive); in assay [20], > 100 µM (inactive).

On to `CC1=C2C(=CC(C)(C)[C@@H]2O)C(=O)[C@](C)(O)C12CC2` [ILLUDIN M], for which the GI50 in assay [1] was 0.0181 µM (active); in assay [2] it was 0.0156 µM (active); in assay [3], < 0.011 µM (active); in assay [4] it was 0.00329 µM (active); in assay [5] it was 0.01 µM (active); in assay [6], 0.0126 µM (active). The GI50 in assay [7] is 0.0197 µM (active); in [8], < 0.018 µM (active); in assay [9] it was 0.0313 µM (active); in assay [10], < 0.0126 µM (active); in assay [11], 0.0165 µM (active); in assay [12], 0.839 µM (active). The GI50 is 0.0138 µM (active) in assay [15]; 0.0275 µM (active) in assay [16]; < 0.0209 µM (active) in [17]; 0.0619 µM (active) in assay [18]; 0.0246 µM (active) in assay [19]; 0.0183 µM (active) in assay [20].

Consider `Cc1ccc(NC(=O)CC2C(=O)Nc3ccccc3[S+]2[O-])c(C)c1` (configuration not stated), for which the GI50 was 4.03 µM (inactive) in assay [1]; 6.78 µM (inactive) in assay [2]; 21 µM (inactive) in assay [3]; 8.61 µM (inactive) in [4]; 6.28 µM (inactive) in [5]; 4.11 µM (inactive) in assay [6]. Besides, the GI50 in assay [7] is 17.6 µM (inactive); in assay [8] it was 12.8 µM (inactive); in [9], 28.1 µM (inactive); in [10], 14.9 µM (inactive); in assay [11], 11.7 µM (inactive); in assay [12], 12.1 µM (inactive). Further, the GI50 in [15] is 15.3 µM (inactive); in assay [16], 16.1 µM (inactive); in [17], 15.8 µM (inactive); in assay [18] it was 16.2 µM (inactive); in [19] it was 19.3 µM (inactive); in [20] it was 53.7 µM (inactive).

Turning to `C=C1C(C)C2C(Cc3ccccc3)NC(=O)C23C(OC(C)=O)/C=C/C(C)(O)CC(C)C/C=C/C3C1O` (configuration not stated), the GI50 was 23.3 µM (inactive) in assay [1]; 99.1 µM (inactive) in assay [2]; 0.492 µM (active) in assay [3]; 0.0394 µM (active) in assay [4]; 5.15 µM (inactive) in assay [5]; 3.05 µM (inactive) in assay [6]. Further, the GI50 in assay [7] is 0.242 µM (active); in assay [8] it was 0.21 µM (active); in [9], 0.0324 µM (active); in [10], 13.8 µM (inactive); in [11], 0.014 µM (active); in [12], 9.42 µM (inactive). For the same compound, the GI50 in assay [13] is 6.56 µM (inactive); in assay [14], > 100 µM (inactive); in [15], 0.0796 µM (active); in [16] it was 0.603 µM (active); in assay [17], 3.94 µM (inactive); in assay [18], 0.728 µM (active). For the same compound, the GI50 was 0.0618 µM (active) in assay [19] and 70.6 µM (inactive) in assay [20].

As to `O=C1C(c2ccc([N+](=O)[O-])cc2)=[N+]([O-])c2ccccc21`, the GI50 in assay [1] is 26.5 µM (inactive); in [2], 28.7 µM (inactive); in assay [3], 16.8 µM (inactive); in [4] it was 23.3 µM (inactive); in assay [5], 31.5 µM (inactive); in assay [6], 16.3 µM (inactive). The GI50 in assay [7] is 77.6 µM (inactive); in assay [8], 42.1 µM (inactive); in [9], < 0.01 µM (active); in [10], 23.3 µM (inactive); in assay [11], 30.6 µM (inactive); in assay [12], 19 µM (inactive). For the same compound, the GI50 in assay [15] is 33.9 µM (inactive); in assay [16], 28 µM (inactive); in assay [17], 29.3 µM (inactive); in assay [18], 34.9 µM (inactive); in assay [19], 29.4 µM (inactive); in assay [20] it was 22.8 µM (inactive).

As to `CCOC(OC1=C(C#N)CCCC1)C(C)[Se]c1ccccc1` (configuration not stated), the GI50 in [1] is 62.1 µM (inactive); in assay [2], 28.9 µM (inactive); in assay [3] it was 44.5 µM (inactive); in assay [4], 15.2 µM (inactive); in assay [5], 29 µM (inactive); in [6] it was 20.6 µM (inactive). Besides, the GI50 in assay [7] was > 100 µM (inactive); in [8] it was 33.3 µM (inactive); in [9], 38.5 µM (inactive); in assay [10], 16 µM (inactive); in [11], 36.9 µM (inactive); in assay [12], 28.3 µM (inactive). Moreover, the GI50 in assay [15] was 36.2 µM (inactive); in assay [16], 84.3 µM (inactive); in assay [17], 26 µM (inactive); in assay [18] it was 30.7 µM (inactive); in [19], 43.6 µM (inactive); in assay [20] it was > 100 µM (inactive).

On to `COc1ccc(-c2cc(=O)c3c(O)c(O)c(OC)cc3o2)cc1O`, for which the GI50 in assay [1], in [2], in [3], in assay [4], in [5] and in [6] was > 100 µM (inactive) in each case. Also, the GI50 in [7] is > 100 µM (inactive); in [8] it was > 100 µM (inactive); in [9], > 100 µM (inactive); in assay [10], > 100 µM (inactive); in assay [11] it was 31.5 µM (inactive); in assay [12], > 100 µM (inactive). The GI50 in assay [15], in assay [16], in [17], in assay [18], in assay [19] and in assay [20] was > 100 µM (inactive) throughout.
